Six compounds from patent EP0142333A2, “Glycerol derivatives” (ONO PHARMACEUTICAL CO., LTD., priority 1983, dated 1985) can be followed below.

Structures can show the parent of a compound that is named as a salt.

One series deals with mice. The experiment in a line: Acute toxicity by intravenous administration. The format is in vivo. Conditions: intravenously administered to tail vein in mice at the dose of 50 mg/kg.
Series [1] deals with PAF-induced platelet aggregation. The experiment in a line: Inhibitory effect on PAF-induced platelet aggregation (platelet rich plasma, Born aggregometer). The note with it: Cavia porcellus; platelet rich plasma of male guinea-pig; PAF (10nM)-induced aggregation; absorbancy method. The series is classed as cell-based. On the procedure: (1) Inhibitory effect on PAF-induced platelet aggregation
Whole blood of male guinea-pig was collected with a 3.8%. aqueous solution of trisodium citrate in a proportion of 9:1 (v/v) and the mixture was centrifuged for 10 minutes at room temperature (120 x g) to obtain platelet rich plasma. Using obtained plasma, PAF (10nM)-induced aggregation was determined by the absorbancy method using an aggregometer of Born (cf. J. Physiol., 162, 67 (1962)) .
The evaluation is conducted using the concentration of compounds of the present invention required to produce a 50% inhibition of each effect, i.e. IC50.

Consider `CCCCCCCCCCCCCCCCOCC(COCCCCCCC[N+](C)(C)C)OCC` (racemic) [5(a), (2RS)-1-0-hexadecyl-2-0-ethyl-3-0-[7-(trimethylammonio)heptyl]glycerol·methanesulfonic acid salt], for which, in the series on mice, the “mortality (dead/used)” value is 0/5.

As to `CCCCCCCCCCCCCCCCOCC(COCCCCCCC[N+](C)(C)C)OC` (racemic) [Example 5, (2RS)-1-0-hexcadecyl-2-0-methyl-3-0-[7-(trimethylammonio)heptyl] glycerol·methanesulfonic acid salt], the IC50 in series [1] is 1300 nM. Besides, in the series with mice, the “mortality (dead/used)” value is reported as 0/5.

With `CCCCCCCCCCCCCCCCOCC(COCCCC[N+](C)(C)C)C(C)C` (racemic) [Example 2(b), (2RS)-l-0-hexadecyl-2-dehydroxy-2-iso-propyl-3-0-[4-(trimethylammonio)butyl]glycerol·iodide], the “mortality (dead/used)” value in the series with mice is listed as 2/5.

In series [1], `CCCCCCCCCCCCCCCCOCC(COCCCCCCC[N+](C)(C)C)OCCC` (racemic) [5(b), (2RS)-1-0-hexadecyl-2-0-n-propyl-3-0-(7-(trimethylammonio)heptyl]glycerol·methanesulfonic acid salt] showed an IC50 of 1800 nM. Also, the “mortality (dead/used)” value in the series with mice was 0/5.

On to `CCCCCCCCCCCCCCCCOCC(CCC)COCCCC[N+](C)(C)C` (racemic) [Example 2, (2RS)-1-0-hexadecyl-2-dehydroxy-2-n-propyl-3-0-[4-(trimethylammonio)butyl]glycerol·iodide], for which the midpoint of inhibition in series [1], the IC50, lay at 5300 nM. In other words, the single-digit micromolar range.

`C=CCOC(COCCCCCCCCCCCCCCCC)COCCCC[N+](C)(C)C` (racemic) [Example 7, (2RS)-1-0-hexadecyl-2-0-allyl-3-0-[4-(trimethylammonio)butyl] glycerol·iodide] showed an IC50 in series [1] of 3800 nM. The IC50 values of the last two compounds are within 1.5-fold of each other.
